Data from patent publication US6046235A, “Sulfur-containing amino acid derivatives” (Santen Pharmaceutical Co., Ltd., priority 1996, dated 2000).

These compounds were tested against T1, LTA4 hydrolase (Cavia porcellus, UniProt P19602) (assay: LTA4 hydrolase inhibition (LTB4 formed from LTA4, guinea pig lung enzyme preparation)). Conditions: Table 2; guinea pig lung enzyme preparation; LTA4 63 μM; 37° C., one minute; pH 7.8; read-out: IC50 (concentration required to inhibit LTA4 hydrolase by 50%).
T1 construct: Lungs were excised from a Hartley guinea pig; from tissue; host or cells: Hartley guinea pig lung, 100,000×g supernatant, 40-70% ammonium sulfate fraction, dialyzed
T1 sequence (P19602 1-611): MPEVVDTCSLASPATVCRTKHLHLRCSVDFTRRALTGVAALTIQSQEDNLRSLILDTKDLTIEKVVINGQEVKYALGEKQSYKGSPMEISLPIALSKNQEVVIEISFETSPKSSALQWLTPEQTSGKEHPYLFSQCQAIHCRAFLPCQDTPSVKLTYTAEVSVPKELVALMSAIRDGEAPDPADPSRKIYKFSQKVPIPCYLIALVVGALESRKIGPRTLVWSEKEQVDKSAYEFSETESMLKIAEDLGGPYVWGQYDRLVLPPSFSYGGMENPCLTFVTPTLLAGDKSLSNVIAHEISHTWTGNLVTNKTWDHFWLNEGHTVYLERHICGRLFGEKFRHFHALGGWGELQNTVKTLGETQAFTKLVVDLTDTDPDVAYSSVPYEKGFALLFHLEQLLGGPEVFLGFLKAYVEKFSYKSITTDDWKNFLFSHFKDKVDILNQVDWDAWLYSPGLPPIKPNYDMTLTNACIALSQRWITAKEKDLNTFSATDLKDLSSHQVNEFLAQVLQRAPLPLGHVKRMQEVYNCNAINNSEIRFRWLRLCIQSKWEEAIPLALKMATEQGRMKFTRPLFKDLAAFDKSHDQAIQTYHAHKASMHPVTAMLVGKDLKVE
Format: biochemical
Experimental: Effects of the present compounds on LTA4 hydrolase were examined according to the method described in the literature.
Lungs were excised from a Hartley guinea pig (body weight: 330 g). The lungs were homogenized in phosphoric acid buffer (50 mM, pH 7.4, containing 1 mM ethylenediaminetetraacetic acid (EDTA) and 1 mM dithiothreitol (DTT) having weight three times that of the lungs under ice-cooling. The homogenate was centrifuged at low speed (800×g) for 20 minutes, centrifuged at high speed (10,000×g) for 20 minutes and ultracentrifuged (100,000×g) for 60 minutes to give a supernatant. The supernatant was brought to 40% saturation by adding a saturated aqueous ammonium sulfate solution (pH 7.0-7.2, containing 1 mM DTT) dropwise under ice-cooling and centrifuged at high speed (10,000×g) for 20 minutes. The resulting supernatant was brought to 70% saturation by adding a saturated aqueous ammonium sulfate solution (pH 7.0-7.2, containing 1 mM DTT) dropwise and centrifuged at high speed (10,000×g) for 20 minutes. The obtained pellet was dissolved in 2 ml of Tris-acetic acid buffer (20 mM, pH 7.8, containing 1 mM DTT) and dialyzed in 2 liters of the solution to give the enzyme preparation.
LTA4 used, which is the substrate, was prepared by hydrolyzing LTA4 methyl ester and dissolved in ethanol.
In order to examine effects of the present compounds on the enzyme preparation, reactions were performed under the following condition using mixed solutions consisting of the composition shown in Table 1.
HEPES buffer 50 mM, pH 7.8
Enzyme preparation 0.4-0.6 mg protein
Aqueous DTT solution 3 mM
The above-mentioned solution (50 μl ) was incubated at 37° C. for one minute. To the reaction mixture was added 100 μl of a mixed liquid of acetonitrile-ethanol-acetic acid (150:50:3, volume ratio) under ice-cooling. The mixture was allowed to stand at -20° C. for 30 minutes and centrifuged at high speed (10,000×g) for five minutes to give a supernatant. An amount of LTB4 produced in the supernatant was measured by high-speed liquid chromatography.
The degree of the inhibitory effect of each test compound on LTA4 hydrolase is expressed by the inhibition rate calculated by the following equation. [formula]
A: amount of LTB4 formed in the absence of the test compound
B: amount of LTB4 formed in the presence of the test compound
Experiments were carried out under the same conditions as those of the above-mentioned "Pharmacological Test".

IC50 [nM] | Compound
120 | CCc1ccc(CSC[C@H](NC(=O)[C@H](C)CSC(=O)c2ccccc2)C(=O)O)cc1 [Compound No. 1-8, (2R)-2-[(2S)-3-(Benzoylthio)-2-methylpropionylamino]-3-(4-ethylbenzylthio)propionic acid]
170 | CCCc1ccc(CSC[C@H](NC(=O)[C@H](C)CSC(=O)c2ccccc2)C(=O)O)cc1 [Compound No. 1-9, (2R)-2-[(2S)-3-(Benzoylthio)-2-methylpropionylamino]-3-(4-propylbenzylthio)propionic acid]
120 | CC(C)c1ccc(CSC[C@H](NC(=O)[C@H](C)CSC(=O)c2ccccc2)C(=O)O)cc1 [Compound No. 1-10, (2R)-2-[(2S)-3-(Benzoylthio)-2-methylpropionylamino]-3-(4-isopropylbenzylthio)propionic acid]
32 | C[C@H](CSC(=O)c1ccccc1)C(=O)N[C@@H](CSCc1ccc(C(C)(C)C)cc1)C(=O)O [Compound No. 1-11, (2R)-2-[(2S)-3-(Benzoylthio)-2-methylpropionylamino]-3-(4-tert-butylbenzylthio) propionic acid]
100 | C[C@H](CSC(=O)c1ccccc1)C(=O)N[C@@H](CSCc1ccc(C(F)(F)F)cc1)C(=O)O [Compound No. 1-13, (2R)-2-[(2S)-3-(Benzoylthio)-2-methylpropionylamino]-3-(4-trifluoromethylbenzylthio)propionic acid]
110 | CSc1ccc(CSC[C@H](NC(=O)[C@H](C)CSC(=O)c2ccccc2)C(=O)O)cc1 [Compound No. 1-16, (2R)-2-[(2S)-3-(Benzoylthio)-2-methylpropionylamino]-3-(4-methylthiobenzylthio)propionic acid]
100 | C[C@H](CSC(=O)c1ccccc1)C(=O)N[C@@H](CSCc1ccc(OC(F)(F)F)cc1)C(=O)O [Compound No. 1-18, (2R)-2-[(2S)-3-(Benzoylthio)-2-methylpropionylamino]-3-(4-trifluoromethoxybenzylthio)propionic acid]
300 | C[C@H](CSC(=O)c1ccccc1)C(=O)N[C@@H](CSCc1ccc(Cl)cc1)C(=O)O [Compound No. 1-23, (2R)-2-[(2S)-3-(Benzoylthio)-2-methylpropionylamino]-3-(4-chlorobenzylthio)propionic acid]
310 | C[C@H](CSC(=O)c1ccccc1)C(=O)N[C@@H](CSCc1ccc(Br)cc1)C(=O)O [Compound No. 1-24, (2R)-2-[(2S)-3-(Benzoylthio)-2-methylpropionylamino]-3-(4-bromobenzylthio)propionic acid]
51 | C[C@H](CSC(=O)c1ccccc1)C(=O)N[C@@H](CSCc1ccc(I)cc1)C(=O)O [Compound No. 1-25, (2R)-2-[(2S)-3-(Benzoylthio)-2-methylpropionylamino]-3-(4-iodobenzylthio)propionic acid]
200 | C[C@H](CSC(=O)c1ccccc1)C(=O)N[C@@H](CSCc1ccc(S(C)(=O)=O)cc1)C(=O)O [Compound No. 1-26, (2R)-2-[(2S)-3-(Benzoylthio)-2-methylpropionylamino]-3-(4-methylsulfonylbenzylthio)propionic acid]
290 | C[C@H](CSC(=O)c1ccccc1)C(=O)N[C@@H](CSCc1ccc([N+](=O)[O-])cc1)C(=O)O [Compound No. 1-28, (2R)-2-[(2S)-3-(Benzoylthio)-2-methylpropionylamino]-3-(4-nitrobenzylthio)propionic acid]
280 | CCc1ccc(CSC[C@H](NC(=O)[C@H](C)CS)C(=O)O)cc1 [Compound No. 2-8, (2R)-3-(4-Ethylbenzylthio)-2-[(2S)-3-mercapto-2-methylpropionylamino]propionic acid]
72 | CCCc1ccc(CSC[C@H](NC(=O)[C@H](C)CS)C(=O)O)cc1 [Compound No. 2-9, (2R)-2-[(2S)-3-Mercapto-2-methylpropionylamino]-3-(4-propylbenzylthio)propionic acid]
200 | CC(C)c1ccc(CSC[C@H](NC(=O)[C@H](C)CS)C(=O)O)cc1 [Compound No. 2-10, (2R)-3-(4-Isopropylbenzylthio)-2-[(2S)-3-mercapto-2-methylpropionylamino]propionic acid]
24 | C[C@H](CS)C(=O)N[C@@H](CSCc1ccc(C(C)(C)C)cc1)C(=O)O [Compound No. 2-11, (2R)-3-(4-tert-Butylbenzylthio)-2-[(2S)-3-mercapto-2-methylpropionylamino]propionic acid]
58 | CC(CS)C(=O)N[C@@H](CSCc1ccc(C(C)(C)C)cc1)C(=O)O (stereo partly drawn) [Compound No. 2-12, (2R)-3-(4-tert-Butylbenzylthio)-2-[(2RS)-3-mercapto-2-5 methylpropionylamino]propionic acid]
140 | C[C@H](CS)C(=O)N[C@@H](CSCc1ccc(C(F)(F)F)cc1)C(=O)O [Compound No. 2-13, (2R)-2-[(2S)-3-Mercapto-2-methylpropionylamino]-3-(4-trifluoromethylbenzylthio)propionic acid]
46 | CSc1ccc(CSC[C@H](NC(=O)[C@H](C)CS)C(=O)O)cc1 [Compound No. 2-16, (2R)-2-[(2S)-3-Mercapto-2-methylpropionylamino]-3-(4-methylthiobenzylthio)propionic acid]
15 | C[C@H](CS)C(=O)N[C@@H](CSCc1ccc(I)cc1)C(=O)O [Compound No. 2-25, (2R)-3-(4-Iodobenzylthio)-2-[(2S)-3-mercapto-2-methylpropionylamino]propionic acid]
160 | C[C@H](CS)C(=O)N[C@@H](CSCc1ccc(S(C)(=O)=O)cc1)C(=O)O [Compound No. 2-26, (2R)-2-[(2S)-3-Mercapto-2-methylpropionylamino]-3-(4-methylsulfonylbenzylthio)propionic acid]
55 | CC(C)c1ccc(C(C)SC[C@H](NC(=O)[C@H](C)CS)C(=O)O)cc1 (stereo partly drawn) [Compound No. 2-30, (2R)-2-[(2S)-3-Mercapto-2-methylpropionylamino]-3-[(α-methyl-4-isopropyl)benzylthio]propionic acid]
25 | CC(C)c1ccc(C(C)(C)SC[C@H](NC(=O)[C@H](C)CS)C(=O)O)cc1 [Compound No. 2-32, (2R)-2-[(2S)-3-Mercapto-2-methylpropionylamino]-3-[(α,α-dimethyl-4-isopropyl)benzylthio]propionic acid]
67 | CCC(SC[C@H](NC(=O)[C@H](C)CS)C(=O)O)c1ccc(C(C)C)cc1 (stereo partly drawn) [Compound No. 2-33, (2R)-3-[(α-Ethyl-4-isopropyl)benzylthio]-2-[(2S)-3-mercapto-2-methylpropionylamino]propionic acid]
68 | CC(SC[C@H](NC(=O)[C@H](C)CS)C(=O)O)c1ccc(C(C)(C)C)cc1 (stereo partly drawn) [Compound No. 2-34, (2R)-3-[(4-tert-Butyl-α-methyl)benzylthio]-2-[(2R)-3-mercapto-2-methylpropionylamino]propionic acid]
79 | C[C@H](CS)C(=O)N[C@@H](CSCc1ccc(C2CCCCC2)cc1)C(=O)O [Compound No. 2-35, (2R)-3-(4-Cyclohexylbenzylthio)-2-[(2S)-3-mercapto-2-methylpropionylamino]propionic acid]
55 | C[C@H](CS)C(=O)N[C@@H](CSC(C)(C)c1ccc(C2CCCCC2)cc1)C(=O)O [Compound No. 2-39, (2R)-3-[(4-Cyclohexyl-α,α-dimethyl)benzylthio]-2-[(2S)-3-mercapto-2-methylpropionylamino]propionic acid]
